Data: patent US9771378B2 (Denali Therapeutics, Inc., priority 2014, dated 2017)

tested on: Aβ42 (human neuroglioma H4 cells expressing human wild type APP751); assay: In vitro cell screening assay with sandwich ELISA quantification of Aβ42 peptide; format: cell-based; conditions: H4 cells stably expressing human wild type APP751; Pro293 chemically defined medium; compounds 0.003-10 μM; incubated overnight (16-18 h); supernatant Aβ42 by sandwich ELISA; normalized to DMSO and DAPT; read-out: Aβ42 H4 Prot Fre IC50
Description: Human neuroglioma H4 cells were transfected with a pcDNA3.1 plasmid expressing human wild type APP751 cDNA and a stable cell line was generated using G418 selection. Cells are plated at 15,000 cells/well in Costar 96-well plates and placed at 37° C. and 5% CO2. Six hours after plating, cells are washed three times with Pro293™ chemically defined medium, followed by addition of compounds (0.003-10 μM, final DMSO concentration of 0.33%). Plates were incubated overnight (16-18 h) and supernatant was removed for quantification of AP peptides by sandwich ELISA. Cytotoxicity was evaluated using Cell-Titer 96W AQueous One Solution Cell Proliferation Assay according to the manufacturer's protocol.
ELISA Measurements of Aβ Peptides
Aβ peptide levels were quantified by sandwich ELISA. 96-well plates are coated with C-terminal specific Aβ antibodies recognizing either Aβ37, Aβ38, Aβ40, Aβ42, Aβ43 or a N-terminal specific Aβ antibody to detect Aβ 1-x. Plates are then blocked overnight at 4° C. with 1% bovine serum albumin (BSA) in PBS-T. Plates are washed and 100 μl of cultured cell supernatant or synthetic Aβ peptide standards and a detection antibody (4G8-HRP) are applied to the blocked plate and incubated overnight at 4° C. The next day, wells are washed before the addition […] of detection substrate (TMB peroxidase). Plates are then read for absorbance at 450 nm on a Molecular Devices SpectraMax M5e Microplate Reader.
IC50 values were calculated from values reported as percent of DMSO controls using nonlinear regression, based on a sigmoidal dose-response (variable slope) model. GraphPAD software from Prism used for calculation.

Q: How did the IC50 turn out when Cc1cn(-c2ccc(Nc3ncc4c(n3)N(C)C(C3CCOCC3)CO4)cc2F)cn1 (single isomer, unassigned; (+)) [Example 109A] was run?
A: Its IC50 is 212 nM.

Q: How did the IC50 turn out when COc1cc(Nc2ncc3c(n2)N(C)C(C)CO3)ccc1-c1ccnc(C)c1 (single isomer, unassigned; (+)) [Example 110B] was run?
A: Its IC50 is 91 nM.

Q: Which IC50 does the source give for COc1cc(Nc2ncc3c(n2)N(C)C(c2ccc(Cl)cc2C(F)(F)F)CO3)ccc1-n1cnc(C)c1 (single isomer, unassigned; (+)) [Example 112B] here?
A: Its IC50 is 64 nM.

Q: With COc1cc(Nc2ncc3c(n2)N(C)C(C2CCOCC2)CO3)ccc1-n1cnc(C)c1 (single isomer, unassigned; (+)) [Example 114B] as the molecule, how does the IC50 read?
A: The IC50 was 77 nM.

Q: For Cc1cn(-c2ccc(Nc3ncc4c(n3)N(C)C(c3cc(F)c(F)c(F)c3)CO4)cc2)cn1 (single isomer, unassigned; (+)) [Example 115B], which IC50 is on record?
A: Its IC50 is 22 nM.

Q: COc1cc(Nc2ncc3c(n2)N(C)C(C)CO3)ccc1-n1cnc(C)c1 (single isomer, unassigned; (+)) [Example 116B] was tested. Which IC50 did it give?
A: Its IC50 is 63 nM.

Q: Which IC50 does the source give for COc1cc(Nc2ncc3c(n2)N(C)C(c2ccc(F)cc2C)CO3)ccc1-n1cnc(C)c1 (single isomer, unassigned; (+)) [Example 117B] here?
A: The IC50 was 22 nM.

Q: For Cc1cn(-c2ccc(Nc3ncc4c(n3)N(C)C(c3cc(F)c(F)c(F)c3)CO4)cc2F)cn1 (single isomer, unassigned; (+)) [Example 118A], which IC50 is on record?
A: Its IC50 is 29 nM.

Q: With COc1cc(Nc2ncc3c(n2)N(C)C(c2cc(Cl)ccc2C(F)(F)F)CO3)ccc1-n1cnc(C)c1 (single isomer, unassigned; (+)) [Example 165A] as the molecule, how does the IC50 read?
A: Its IC50 is 89 nM.

Q: COc1ccc(Cl)c(C2COc3cnc(Nc4ccc(-n5cnc(C)c5)c(OC)c4)nc3N2C)c1 (single isomer, unassigned; (+)) [Example 167A] was tested. Which IC50 did it give?
A: The IC50 was 22 nM.

Q: For COc1cc(Nc2ncc3c(n2)N(C)C(c2ccc(C(F)(F)F)cc2C(F)(F)F)CO3)ccc1-n1cnc(C)c1 (single isomer, unassigned; (+)) [Example 168B], which IC50 is on record?
A: Its IC50 is 76 nM.

Q: Which IC50 does the source give for Cc1cn(-c2ccc(Nc3ncc4c(n3)N(C)C(c3cc(F)c(F)cc3Cl)CO4)cc2F)cn1 (single isomer, unassigned; (+)) [Example 169A] here?
A: Its IC50 is 45 nM.

Q: COc1cc(Nc2ncc3c(n2)N(C)C(c2ccccc2C)CO3)cnc1-n1cnc(C)c1 (single isomer, unassigned; (+)) [Example 171A] was tested. Which IC50 did it give?
A: The IC50 was 11 nM.

Q: With COc1cc(Nc2ncc3c(n2)N(C)C(CC(F)(F)F)CO3)ccc1-n1cnc(C)c1 (single isomer, unassigned; (+)) [Example 172B] as the molecule, how does the IC50 read?
A: The IC50 was 54 nM.

Q: Which IC50 does the source give for Cc1cn(-c2ccc(Nc3ncc4c(n3)N(C)C(c3cc(C(F)(F)F)ccc3Cl)CO4)cc2F)cn1 (single isomer, unassigned; (+)) [Example 173A] here?
A: Its IC50 is 72 nM.

Q: Which IC50 does the source give for COc1cc(Cl)c(C2COc3cnc(Nc4ccc(-n5cnc(C)c5)c(OC)c4)nc3N2C)cc1Cl (single isomer, unassigned; (+)) [Example 174B] here?
A: Its IC50 is 32 nM.

Q: COc1ccc(C)c(C2COc3cnc(Nc4ccc(-n5cnc(C)c5)c(OC)c4)nc3N2C)c1 (single isomer, unassigned; (+)) [Example 175A] was tested. Which IC50 did it give?
A: Its IC50 is 11 nM.

Q: How did the IC50 turn out when COc1nc(Nc2ncc3c(n2)N(C)C(c2cc(F)cc(F)c2)CO3)ccc1-n1cnc(C)c1 (single isomer, unassigned; (+)) [Example 179B] was run?
A: Its IC50 is 287 nM.

Q: With COc1nc(Nc2ncc3c(n2)N(C)C(c2ccccc2C)CO3)ccc1-n1cnc(C)c1 (single isomer, unassigned; (+)) [Example 180B] as the molecule, how does the IC50 read?
A: The IC50 was 374 nM.

Q: With COc1cc(Nc2ncc3c(n2)N(C)C(c2cc(F)c(F)cc2F)CO3)cnc1-n1cnc(C)c1 (single isomer, unassigned; (+)) [Example 181B] as the molecule, how does the IC50 read?
A: Its IC50 is 392 nM.

Q: Which IC50 does the source give for COc1cc(Nc2ncc3c(n2)N(C)C(c2cc(F)c(F)c(F)c2)CO3)cnc1-n1cnc(C)c1 (single isomer, unassigned; (+)) [Example 182A] here?
A: Its IC50 is 13 nM.

Q: COc1nc(Nc2ncc3c(n2)N(C)C(c2cc(F)cc(F)c2)CO3)ccc1-c1ccnc(C)n1 (single isomer, unassigned; (+)) [Example 183A] was tested. Which IC50 did it give?
A: Its IC50 is greater than 3000 nM.

Q: For COc1nc(Nc2ncc3c(n2)N(C)C(c2cc(F)cc(F)c2)CO3)ccc1-c1cnn(C)c1 (single isomer, unassigned; (+)) [Example 184B], which IC50 is on record?
A: Its IC50 is greater than 3000 nM.

Q: For COc1cc(Nc2ncc3c(n2)N(C)C(C)CO3)cnc1-n1cnc(C)c1 (single isomer, unassigned; (+)) [Example 185A], which IC50 is on record?
A: Its IC50 is 241 nM.

Q: With COc1cc(Nc2ncc3c(n2)N(C)C(c2ccc(F)cc2F)CO3)cnc1-n1cnc(C)c1 (single isomer, unassigned; (+)) [Example 186A] as the molecule, how does the IC50 read?
A: The IC50 was 18 nM.

Q: COc1cc(Nc2ncc3c(n2)N(C)C(C(F)(F)F)CO3)ccc1-n1cnc(C)c1 (single isomer, unassigned; (+)) [Example 187A] was tested. Which IC50 did it give?
A: Its IC50 is 419 nM.

Q: For COc1nc(Nc2ncc3c(n2)N(C)C(c2cc(F)c(F)c(F)c2)CO3)ccc1-n1cnc(C)c1 (single isomer, unassigned; (+)) [Example 188B], which IC50 is on record?
A: Its IC50 is 275 nM.

Q: For COc1cc(Nc2ncc3c(n2)N(C)C(c2cc(F)cc(F)c2)CO3)cnc1-n1cnc(C)c1 (single isomer, unassigned; (+)) [Example 189A], which IC50 is on record?
A: Its IC50 is 13 nM.

Q: How did the IC50 turn out when Cc1cn(-c2ccc(Nc3ncc4c(n3)N(C)C(c3cc(F)cc(F)c3)CO4)nc2C#N)cn1 (single isomer, unassigned; (+)) [Example 192B, (+)-6-((7-(3,5-difluorophenyl)-8-methyl-7,8-dihydro-6H-pyrimido [5,4-b] [1, 4]oxazin-2-yl)amino)-3-(4-methyl-1H-imidazol-1-yl) picolinonitrile] was run?
A: The IC50 was 576 nM.

Q: With COc1cc(Nc2ncc3c(n2)N(C)C(C(F)(F)F)CO3)cnc1-n1cnc(C)c1 (single isomer, unassigned; (+)) [Example 193A] as the molecule, how does the IC50 read?
A: The IC50 was 908 nM.

Q: How did the IC50 turn out when Cc1cn(-c2ccc(Nc3ncc4c(n3)N(C)C(C)CO4)cn2)cn1 (single isomer, unassigned; (+)) [Example 194A] was run?
A: The IC50 was 970 nM.

Q: For COc1ccc(C2COc3cnc(Nc4ccc(-n5cnc(C)c5)c(OC)c4)nc3N2C)c(C)c1 (single isomer, unassigned; (+)) [Example 199A], which IC50 is on record?
A: The IC50 was 25 nM.

Q: For COc1cc(Nc2ncc3c(n2)N(C)C(C)CO3)ccc1-n1cnc(Cl)c1 (single isomer, unassigned; (+)) [Example 202B], which IC50 is on record?
A: The IC50 was 63 nM.

Q: How did the IC50 turn out when Cc1cn(-c2ccc(Nc3ncc4c(n3)N(C)C(c3cc(F)cc(F)c3)CO4)cc2C#N)cn1 (single isomer, unassigned; (+)) [Example 203A, (+)-5-((7-(3,5-difluorophenyl)-8-methyl-7,8-dihydro-6H-pyrimido [5,4-b] [1, 4]oxazin-2-yl)amino)-2-(4-methyl-1H-imidazol-1-yl) benzonitrile] was run?
A: Its IC50 is 16 nM.

Q: How did the IC50 turn out when COc1cc(Nc2ncc3c(n2)N(C)C(c2cc(F)cc(F)c2)CO3)ccc1-n1cnc(Cl)c1 (single isomer, unassigned; (+)) [Example 204B] was run?
A: Its IC50 is 19 nM.

Q: With Cc1cn(-c2ccc(Nc3ncc4c(n3)N(C)C(C)CO4)cc2C#N)cn1 (single isomer, unassigned; (+)) [Example 205A, (+)-5-((7,8-dimethyl-7,8-dihydro-6H-pyrimido [5,4-b] [1, 4]oxazin-2-yl)amino)-2-(4-methyl-1H-imidazol-1-yl) benzonitrile] as the molecule, how does the IC50 read?
A: Its IC50 is 231 nM.

Q: Which IC50 does the source give for COc1cc(Nc2ncc3c(n2)N(C)C(c2cc(F)cc(F)c2)CO3)cnc1-n1cnc(C(F)(F)F)c1 (single isomer, unassigned; (+)) [Example 206A] here?
A: Its IC50 is 27 nM.

Q: Which IC50 does the source give for COc1ccc(C)c(C2COc3cnc(Nc4cnc(-n5cnc(C)c5)c(OC)c4)nc3N2C)c1 (single isomer, unassigned; (+)) [Example 207A] here?
A: Its IC50 is 10 nM.

Q: Which IC50 does the source give for COc1ccc(Cl)c(C2COc3cnc(Nc4cnc(-n5cnc(C)c5)c(OC)c4)nc3N2C)c1 (single isomer, unassigned; (+)) [Example 208A] here?
A: Its IC50 is 20 nM.

Q: With COc1ccc(C2COc3cnc(Nc4cnc(-n5cnc(C)c5)c(OC)c4)nc3N2C)c(Cl)c1 (single isomer, unassigned; (+)) [Example 209A] as the molecule, how does the IC50 read?
A: The IC50 was 21 nM.

Q: How did the IC50 turn out when Cc1cn(-c2ncc(Nc3ncc4c(n3)N(C)C(c3cc(F)cc(F)c3)CO4)cc2Cl)cn1 (single isomer, unassigned; (+)) [Example 210A] was run?
A: The IC50 was 41 nM.

Q: For COc1cc(Nc2ncc3c(n2)N(C)C(c2cc(F)cc(F)c2)CO3)cnc1-n1cnc(C#N)c1 (single isomer, unassigned; (+)) [Example 211A, (+)-1-(5-((7-(3,5-difluorophenyl)-8-methyl-7,8-dihydro-6H-pyrimido [5,4-b] [1, 4]oxazin-2-yl)amino)-3-methoxypyridin-2-yl)-1H-imidazole-4-carbonitrile], which IC50 is on record?
A: Its IC50 is 179 nM.

Q: How did the IC50 turn out when COc1cc(Nc2ncc3c(n2)N(C)C(C2CC(F)(F)C2)CO3)ccc1-n1cnc(C)c1 (single isomer, unassigned; (+)) [Example 212B] was run?
A: Its IC50 is 61 nM.

Q: How did the IC50 turn out when Cc1cn(-c2ccc(Nc3ncc4c(n3)N(C)C(C)CO4)cc2OC(F)(F)F)cn1 (single isomer, unassigned; (+)) [Example 213B] was run?
A: The IC50 was greater than 3000 nM.
